Measurements reported in PubChem BioAssay AID179 (DTP/NCI, 2004).
Calls of active or inactive are those of the source.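 The calls were made as follows: active = compounds giving half or more protection of infected cells from virus-caused growth loss, again on retest; inactive = the rest.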

Tested on: CEM cells HIV-1 protection, formazan growth assay
Assay: NCI AIDS Antiviral Assay
Conditions: for IC50: measured here: growth of uninfected CEM cells
Summary of the method: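 Soluble formazan readout of cell growth; CEM cells ± HIV-1; 5 drug concs. ≥50% protection → retest; ≥50% again = moderately active; reproducible 100% = confirmed active.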

Structure (SMILES)	EC50 [µM]	IC50 [µM]	outcome
Cc1ccc(C(=O)/C=C/c2ccccc2O)c(C)c1	91.2	102	
O=C1NC(=O)/C(=C\c2cccc(Br)c2)N1	> 200	105	
COc1ccc(C2(c3ccc(OC)cc3)N=NC3(C)CC32)cc1 (centres undefined)	> 91.2	89.1	
Cc1ccccc1-n1c(=O)sc2c(=O)n(-c3ccccc3)c(=S)[nH]c21	> 2.82	> 2.82	
C1=CN2C(c3ccccc3)=NON(c3ncccn3)C2N=C1 (centres undefined)	> 46.8	> 46.8	
C=C1C(=O)OC2/C=C(\CO)C(OC(C)=O)CC(O)/C(C)=C/C(OC(=O)C(C)CC)C12 (centres undefined)			inactive
Cn1c2ccccc2c2oc(-c3nn[nH]n3)cc(=O)c21	> 126	> 126	
CC(CO)CCNc1ncnc2c1ncn2CCC(=O)O (centres undefined)	> 200	> 200	
Cc1cccnc1NC(=S)Nc1ncccc1C	> 200	186	
CSc1nc(Br)nc2c1ncn2C1CC(Oc2ccc(C)cc2)C(COc2ccc(C)cc2)O1 (centres undefined)	> 200	79.4	
COc1ccc(C2OC(=O)c3ccccc32)c2ccccc12 (centres undefined)	> 46.8	> 46.8	
N#Cc1c2c(c(-c3cccs3)n(C3OC(CO)C(O)C(O)C3O)c1=S)CCc1ccccc1-2 (centres undefined)			inactive
CC1C(c2ccccc2)=Nn2c(=O)n(-c3ccccc3)c(=O)n21 (centres undefined)	> 200	> 200	
CC(=O)Oc1cc2c(c(=O)n1C)C(C)N(C)C2=O (centres undefined)	53.7	309	
OC(c1cc2ccccc2[nH]1)C(O)(c1cc2ccccc2[nH]1)c1cc2ccccc2[nH]1 (centres undefined)	> 12.9	11	
Nc1ccn(C2CCC(CO)O2)c(=O)n1 (centres undefined)	4.68	13.5	
Cc1nc2c(Cl)cc(Cl)cc2c(Cl)c1CCCl	> 200	> 200	
C=C(Nc1ccc(OC)cc1OC)C(=O)Cc1cccc[n+]1[O-]	> 794	> 794	
CCN1C(=O)C(C)S/C1=N\NC(=O)CSc1nc2ccccc2c(=O)n1CC (centres undefined)	> 200	145	
CCOc1ccc(/C(C)=N/NC(N)=S)cc1			inactive
Cc1oc(N)c(S(=O)(=O)c2cc3ccccc3n(O)c2=N)c1C	> 200	95.5	
CN(CCO)CC(=O)CC(O)(C(F)(F)F)C(F)(F)F	> 200	39.8	
O=C(N/N=C1\CCc2ccccc2C1)N/N=C1\CCc2ccccc2C1	> 200	51.3	

Structure (SMILES)	EC50 [µM]	IC50 [µM]	outcome
Cc1nc2ccc(Cl)cc2c(Cl)c1CCCl	> 200	10.7	
Cc1nn(C(=O)c2ccc(Cl)cc2)c2c1C(c1ccccc1)SC(N)=N2 (centres undefined)			inactive
C=CCNC(=O)N1CC(C)C(=O)Nc2ccccc21 (centres undefined)	> 200	> 200	
COC(=O)C1NC(C)(C(=O)OC)C2C(=O)NC(=O)C12 (centres undefined)	> 933	> 933	
COC(=O)C(=O)C(C(=O)C(=O)Nc1ccccc1[N+](=O)[O-])c1nc2ccc([N+](=O)[O-])cc2[nH]c1=O (centres undefined)	> 269	245	
Nc1ncnc2c1ncn2C1OC(CO)CC1O (centres undefined)			inactive
Cc1oc2nc(N(C)C)n3nnnc3c2c1C			inactive
Cc1cc(O)c2c(c1)C([C@]13Cc4cc(O)c5c(c4[C@H]1C=C[C@@H](O)C3O)C(=O)c1c(O)ccc(O)c1C5=O)OC2=O (some centres undefined)	> 6.61	> 6.61	
Clc1ccc(-n2cccc2)cc1	> 200	> 200	
CC(=O)Oc1cc(S(=O)(=O)Nc2n[nH]c(N)n2)c(S)cc1Cl	> 200	> 200	
CCOC(=O)/C(C#N)=C/c1ccccc1[N+](=O)[O-]	> 275	46.8	
COc1cccc(C=C(C#N)C#N)c1OC	> 200	> 100	
O=c1[nH]cnc2cccc(Cl)c12	> 200	> 200	
Cc1ccc(C2SCC(=O)N2NC(=O)c2ccncc2)s1 (centres undefined)	> 200	> 200	
Cc1cc(NCCCCCCCNc2cc(C)nc3cc([N+](=O)[O-])ccc23)c2ccc([N+](=O)[O-])cc2n1			inactive
O=C(c1cccc(C(=O)N(c2ccccc2)c2ccccc2)n1)N(c1ccccc1)c1ccccc1	> 11.2	> 11.2	
CC(C)N1C(=O)N(Cl)C2C1N(Cl)C(=O)N2Cl (centres undefined)	> 200	> 200	
O=C(Nc1ccc([N+](=O)[O-])cc1)N(c1ccccn1)c1ccccn1	> 200	151	
CCOC(=O)c1cnccc1CC1(C#N)c2ccccc2C=CN1C(=O)c1ccccc1 (centres undefined)	> 200	17.8	
O=c1oc2c(-c3ccccc3)n[nH]c(=O)c2c2c1CCCC2	> 170	> 170	
CC(=O)OCC1OC(n2c(-c3cccs3)c3c(c(C#N)c2=S)-c2ccccc2CC3)C(OC(C)=O)C(OC(C)=O)C1OC(C)=O (centres undefined)			inactive
COc1cc(OC)cc(-c2cc(=O)c3c(OC)c(OC)c(OC)c(OC)c3o2)c1	> 200	26.9	
c1ccc(C2N=C(c3ccccn3)C(c3ccccn3)=NC2c2ccccc2)cc1 (centres undefined)	> 9.77	> 9.77	
